Test results reported in US11964973B2 (priority 2019, dated 2024).
Read-outs that look alike come from different tables or passages of the source.

Legend:
DGKα = DGKα (Homo sapiens (Human), UniProt P23743); assay: biochemical; type: biochemical
human DGKζ = human DGKζ (Homo sapiens (Human), UniProt Q13574); assay: biochemical; type: biochemical; conditions: liposome (LIPGLO) assay
[1] = tested on: Human venous whole blood (IFN-γ); assay: Human whole blood IFN-γ assay; type: cell-based
Experimental: Assay 10: Human Whole Blood IFN-γ Assay
Human venous whole blood (22.5 μL per well), obtained from healthy donors, was pre-treated with compounds for one hour at 37° C. in a humidified 95% air/5% CO2 incubator. The blood was stimulated with 2.5 μL anti-human CD3 and anti-CD28 mAb at a final concentration of 1 μg/mL each for 24 hours at 37° C. IFN-γ in the supernatants was measured using AlphLISA kit (Cat #AL217).

[2] = Table A, liposome (LIPGLO) assay, read-out: DGKα
[3] = liposome (LIPGLO) assay, read-out: DGKα LIPGLO IC50
[4] = Homo sapiens, 24 h, human whole blood, anti-CD3 plus anti-CD28, 24 hours, read-out: INFg Whole Blood Normalized Agonist EC50
[5] = human whole blood, anti-CD3 plus anti-CD28, 24 hours, read-out: INFg Whole Blood Normalized Agonist EC50

Sequence of DGKα (P23743 whole entry, looked up): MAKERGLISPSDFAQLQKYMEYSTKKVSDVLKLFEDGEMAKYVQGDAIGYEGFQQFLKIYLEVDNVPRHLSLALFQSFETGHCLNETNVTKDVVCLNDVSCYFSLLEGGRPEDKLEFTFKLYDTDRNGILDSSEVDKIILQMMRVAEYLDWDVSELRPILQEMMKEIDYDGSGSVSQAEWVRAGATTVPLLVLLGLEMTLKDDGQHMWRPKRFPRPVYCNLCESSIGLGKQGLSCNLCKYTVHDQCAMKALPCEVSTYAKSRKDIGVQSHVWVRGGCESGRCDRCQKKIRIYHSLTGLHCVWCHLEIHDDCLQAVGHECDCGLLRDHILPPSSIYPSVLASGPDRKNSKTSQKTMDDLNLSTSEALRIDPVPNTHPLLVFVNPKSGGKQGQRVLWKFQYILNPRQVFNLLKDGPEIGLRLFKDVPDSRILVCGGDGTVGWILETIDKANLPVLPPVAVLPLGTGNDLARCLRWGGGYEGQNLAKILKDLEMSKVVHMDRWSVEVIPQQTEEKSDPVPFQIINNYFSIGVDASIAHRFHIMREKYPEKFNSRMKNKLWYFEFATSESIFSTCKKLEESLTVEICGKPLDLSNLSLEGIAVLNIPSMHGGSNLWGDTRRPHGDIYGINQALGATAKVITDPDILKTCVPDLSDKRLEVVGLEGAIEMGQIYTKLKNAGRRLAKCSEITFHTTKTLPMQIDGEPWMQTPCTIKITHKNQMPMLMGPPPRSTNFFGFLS
Sequence of human DGKζ (Q13574 whole entry, looked up): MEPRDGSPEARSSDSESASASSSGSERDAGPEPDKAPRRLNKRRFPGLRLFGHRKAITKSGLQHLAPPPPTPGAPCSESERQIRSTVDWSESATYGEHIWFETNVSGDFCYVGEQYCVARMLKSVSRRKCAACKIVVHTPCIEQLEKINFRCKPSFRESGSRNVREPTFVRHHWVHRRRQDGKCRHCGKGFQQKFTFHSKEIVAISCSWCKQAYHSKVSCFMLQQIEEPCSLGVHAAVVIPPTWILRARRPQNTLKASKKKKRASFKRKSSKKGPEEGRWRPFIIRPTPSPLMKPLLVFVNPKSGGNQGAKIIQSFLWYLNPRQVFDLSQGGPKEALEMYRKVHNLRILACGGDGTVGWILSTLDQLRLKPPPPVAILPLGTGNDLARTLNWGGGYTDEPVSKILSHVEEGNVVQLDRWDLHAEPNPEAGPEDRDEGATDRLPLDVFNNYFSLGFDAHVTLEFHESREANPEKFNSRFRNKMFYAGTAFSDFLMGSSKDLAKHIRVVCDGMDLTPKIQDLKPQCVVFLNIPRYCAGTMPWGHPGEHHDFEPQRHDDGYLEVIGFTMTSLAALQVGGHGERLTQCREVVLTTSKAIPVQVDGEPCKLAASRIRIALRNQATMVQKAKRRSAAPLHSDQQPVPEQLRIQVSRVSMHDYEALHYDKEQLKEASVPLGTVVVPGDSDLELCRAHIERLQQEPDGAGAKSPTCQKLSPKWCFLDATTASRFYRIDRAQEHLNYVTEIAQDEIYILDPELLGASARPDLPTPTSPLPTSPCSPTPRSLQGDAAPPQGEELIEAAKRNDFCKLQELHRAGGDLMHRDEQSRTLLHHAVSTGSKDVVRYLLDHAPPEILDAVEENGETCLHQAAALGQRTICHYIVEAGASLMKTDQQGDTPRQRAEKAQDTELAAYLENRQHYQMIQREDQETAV

Compound | IC50 (DGKα; [3]) | IC50 (human DGKζ; read-out: DGKζ LIPGLO IC50) | further results
C[C@@H]1CN(c2c(C#N)c(=O)n(C)c3ccc(C#N)nc23)CC[C@@H]1Oc1ccc(C(F)(F)F)cc1 [Example 190, 5-methyl-8-((3R,4S)-3-methyl-4-(4-(trifluoromethyl)phenoxy)piperidin-1-yl)-6-oxo-5,6-dihydro-1,5-naphthyridine-2,7-dicarbonitrile] |  |  | IC50 (DGKα; [2]): 2200 nM; IC50 (human DGKζ; Table A, read-out: DGKζ): 3100 nM; EC50 ([1]; human whole blood IFN-γ, read-out: INFg Whole Blood): 20000 nM
C[C@@H]1CN(c2cc(=O)n(C)c3ccc(C#N)nc23)CC[C@@H]1Oc1cccc(C2CC2)c1 [Example 179, 8-((3R,4S)-4-(3-cyclopropylphenoxy)-3-methylpiperidin-1-yl)-5-methyl-6-oxo-5,6-dihydro-1,5-naphthyridine-2-carbonitrile] | 69 nM | 1200 nM | EC50 [1, 4]: 2400 nM
C[C@@H]1CN(c2cc(=O)n(C)c3ccc(C#N)nc23)CC[C@H]1Oc1ccc(OC(C)(C)C)cc1 [Example 86, 8-((3R,4R)-4-(4-(tert-butoxy)phenoxy)-3-methylpiperidin-1-yl)-5-methyl-6-oxo-5,6-dihydro-1,5-naphthyridine-2-carbonitrile] |  |  | IC50 (DGKα; read-out: DGKα LIPGLO IC50): 720 nM; EC50 [1, 5]: 690 nM
CC[C@@H]1CN(c2cc(=O)n(C)c3ccc(C#N)nc23)CC[C@H]1Oc1cccc(C(C)(C)C)c1 (single isomer, unassigned) [Example 198] |  |  | IC50 (DGKα; [2]): 160 nM; IC50 (human DGKζ; Table A, read-out: DGKζ): 1300 nM; EC50 ([1]; read-out: INFg Whole Blood, human whole blood IFN-γ): 3100 nM
CCC(C)(C)c1ccc(O[C@@H]2CCN(c3c(C#N)c(=O)n(C)c4ccc(C#N)nc34)C[C@H]2C)cc1 (racemic) [Example 229, (+/−) 5-methyl-8-(trans-3-methyl-4-(4-(tert-pentyl)phenoxy)piperidin-1-yl)-6-oxo-5,6-dihydro-1,5-naphthyridine-2,7-dicarbonitrile] |  |  | IC50 (DGKα; [2]): 280 nM; IC50 (human DGKζ; Table A, read-out: DGKζ): ≥ 250000 nM
C[C@@H]1CN(c2cc(=O)n(C)c3ccc(C#N)nc23)CC[C@H]1Oc1ccc(OC(C)(C)C)cc1 [Example 87, 8-((3R,4R)-4-(4-(tert-butoxy)phenoxy)-3-methylpiperidin-1-yl)-5-methyl-6-oxo-5,6-dihydro-1,5-naphthyridine-2-carbonitrile] | 50 nM |  | EC50 [1, 5]: 2000 nM
COc1cc(OC2CCN(c3cc(=O)n(C)c4ccc(C#N)nc34)CC2)nc2cc(Cl)ccc12 [Example 73, 8-(4-((7-chloro-4-methoxyquinolin-2-yl)oxy)piperidin-1-yl)-5-methyl-6-oxo-5,6-dihydro-1,5-naphthyridine-2-carbonitrile] | 2200 nM | 8300 nM | EC50 [1, 4]: 20000 nM
C[C@@H]1CN(c2cc(=O)n(C)c3ccc(C#N)nc23)CC[C@H]1Oc1ccc(C(F)(F)F)cc1F [Example 112, 8-((3R,4R)-4-(2-fluoro-4-(trifluoromethyl)phenoxy)-3-methylpiperidin-1-yl)-5-methyl-6-oxo-5,6-dihydro-1,5-naphthyridine-2-carbonitrile] | 340 nM | 7500 nM | EC50 [1, 4]: 4100 nM
CC[C@@H]1CN(c2cc(=O)n(C)c3ccc(C#N)nc23)CC[C@H]1Oc1ccc(OC(C)(C)C)cc1 (single isomer, unassigned) [Example 160] | 1700 nM | 3300 nM | EC50 [1, 5]: 4500 nM
CC[C@@H]1CN(c2cc(=O)n(C)c3ccc(C#N)nc23)CC[C@H]1Oc1cccc(C(F)(F)F)c1 [Example 140, 8-((3R,4R)-3-ethyl-4-(3-(trifluoromethyl)phenoxy)piperidin-1-yl)-5-methyl-6-oxo-5,6-dihydro-1,5-naphthyridine-2-carbonitrile] | 130 nM |  | EC50 [1, 4]: 1200 nM
CC(C)c1ccc(O[C@H]2CCN(c3cc(=O)n(C)c4ccc(C#N)nc34)C[C@H]2C)cc1 [Example 182, 8-((3R,4S)-4-(4-isopropylphenoxy)-3-methylpiperidin-1-yl)-5-methyl-6-oxo-5,6-dihydro-1,5-naphthyridine-2-carbonitrile] | 1100 nM | 1800 nM | EC50 [1, 5]: 2800 nM
CC[C@@H]1CN(c2cc(=O)n(C)c3ccc(C#N)nc23)CC[C@H]1Oc1cccc(C(C)C)c1 (racemic) [Example 137, 8-((3R,4R)-3-ethyl-4-(3-isopropylphenoxy)piperidin-1-yl)-5-methyl-6-oxo-5,6-dihydro-1,5-naphthyridine-2-carbonitrile] | 36 nM | 920 nM | 
CC(C)c1ccc(O[C@H]2CCN(c3cc(=O)n(C)c4ccc(C#N)nc34)C[C@H]2C)cc1 [Example 176, 8-((3R,4S)-4-(4-isopropylphenoxy)-3-methylpiperidin-1-yl)-5-methyl-6-oxo-5,6-dihydro-1,5-naphthyridine-2-carbonitrile] | 41 nM | 1300 nM | EC50 [1, 4]: 2300 nM
CC[C@@H]1CN(c2cc(=O)n(C)c3ccc(C#N)nc23)CC[C@@H]1Oc1cccc(C(C)(C)C)c1 [Example 165, 8-((3R,4S)-4-(3-(tert-butyl)phenoxy)-3-ethylpiperidin-1-yl)-5-methyl-6-oxo-5,6-dihydro-1,5-naphthyridine-2-carbonitrile] | 96 nM | 1200 nM | EC50 ([1]; read-out: INFg Whole Blood Normalized Agonist EC50, human whole blood, anti-CD3 plus anti-CD28, 24 hours): 840 nM
C[C@@H]1CN(c2cc(=O)n(C)c3ccc(C#N)nc23)CC[C@@H]1Oc1cccc(C2CC2)c1 [Example 181, 8-((3R,4S)-4-(3-cyclopropylphenoxy)-3-methylpiperidin-1-yl)-5-methyl-6-oxo-5,6-dihydro-1,5-naphthyridine-2-carbonitrile] | 61 nM | 1400 nM | 
C[C@@H]1CN(c2cc(=O)n(C)c3ccc(C#N)nc23)CC[C@@H]1Oc1cccc(C2CC2)c1 [Example 180, 8-((3R,4S)-4-(3-cyclopropylphenoxy)-3-methylpiperidin-1-yl)-5-methyl-6-oxo-5,6-dihydro-1,5-naphthyridine-2-carbonitrile] | 45 nM | 1000 nM | 
C[C@@H]1CN(c2cc(=O)n(C)c3ccc(C#N)nc23)CC[C@@H]1Oc1ccc(OC(C)(C)C)cc1 (single isomer, unassigned) [Example 174] |  |  | IC50 (DGKα; read-out: DGKα LIPGLO IC50): 1600 nM; EC50 [1, 5]: 3600 nM
CC[C@@H]1CN(c2cc(=O)n(C)c3ccc(C#N)nc23)CC[C@H]1Oc1cccc(OC(F)(F)F)c1 (single isomer, unassigned) [Example 163] | 42 nM | 360 nM | 
CC[C@@H]1CN(c2cc(=O)n(C)c3ccc(C#N)nc23)CC[C@H]1Oc1cccc(OC(F)(F)F)c1 (single isomer, unassigned) [Example 162] | 1700 nM | 1100 nM | 
C[C@@H]1CN(c2cc(=O)n(C)c3ccc(C#N)nc23)CC[C@@H]1Oc1ccc(OC(C)(C)C)cc1 (single isomer, unassigned) [Example 173] | 740 nM |  | EC50 [1, 5]: 1100 nM
CCc1cnc(O[C@H]2CCN(c3cc(=O)n(C)c4ccc(C#N)nc34)C[C@H]2C)nc1 [Example 221, 8-((3R,4S)-4-((5-ethylpyrimidin-2-yl)oxy)-3-methylpiperidin-1-yl)-5-methyl-6-oxo-5,6-dihydro-1,5-naphthyridine-2-carbonitrile] |  |  | IC50 (DGKα; [2]): 350 nM; IC50 (human DGKζ; Table A, read-out: DGKζ): 1800 nM
COc1cc(F)ccc1OC1CCN(c2c(C#N)c(=O)n(C)c3ccc(Cl)nc23)CC1 [Example 36, 6-chloro-4-(4-(4-fluoro-2-methoxyphenoxy)piperidin-1-yl)-1-methyl-2-oxo-1,2-dihydro-1,5-naphthyridine-3-carbonitrile] | 1600 nM | 32000 nM | 
C[C@@H]1CN(c2cc(=O)n(C)c3ccc(C#N)nc23)CC[C@H]1Oc1cccc2c1OCCCO2 [Example 132, 8-((3R,4R)-4-((3,4-dihydro-2H-benzo[b][1,4]dioxepin-6-yl)oxy)-3-methylpiperidin-1-yl)-5-methyl-6-oxo-5,6-dihydro-1,5-naphthyridine-2-carbonitrile] | 11 nM | 4300 nM | 
C[C@@H]1CN(c2cc(=O)n(C)c3ccc(C#N)nc23)CC[C@H]1Oc1c(F)cc(F)cc1F [Example 131, 5-methyl-8-((3R,4R)-3-methyl-4-(2,4,6-trifluorophenoxy)piperidin-1-yl)-6-oxo-5,6-dihydro-1,5-naphthyridine-2-carbonitrile] | 3100 nM | ≥ 250000 nM | 
Cn1c(=O)cc(N2CCC(Oc3ccc(C4CCCCC4)cc3)CC2)c2nc(C#N)ccc21 [Example 63, 8-(4-(4-cyclohexylphenoxy)piperidin-1-yl)-5-methyl-6-oxo-5,6-dihydro-1,5-naphthyridine-2-carbonitrile] | 740 nM | 38000 nM | 
C[C@@H]1CN(c2cc(=O)n(C)c3ccc(C#N)nc23)CC[C@@H]1Oc1ccc(OC(C)(C)C)cc1 [Example 172, 8-((3R,4S)-4-(4-(tert-butoxy)phenoxy)-3-methylpiperidin-1-yl)-5-methyl-6-oxo-5,6-dihydro-1,5-naphthyridine-2-carbonitrile] |  |  | IC50 (DGKα; read-out: DGKα LIPGLO IC50): 620 nM; EC50 [1, 4]: 1500 nM
CCC(C)(C)c1ccc(O[C@@H]2CCN(c3c(C#N)c(=O)n(C)c4ccc(C#N)nc34)C[C@H]2C)cc1 (single isomer, unassigned) [Example 230, 5-methyl-8-(trans-3-methyl-4-(4-(tert-pentyl)phenoxy)piperidin-1-yl)-6-oxo-5,6-dihydro-1,5-naphthyridine-2,7-dicarbonitrile (rel)] |  |  | IC50 (DGKα; [2]): 3300 nM; IC50 (human DGKζ; Table A, read-out: DGKζ): ≥ 250000 nM
Cn1c(=O)cc(N2CCC(Oc3ccc(C(F)(F)F)cn3)CC2)c2nc(C#N)ccc21 [Example 77, 5-methyl-6-oxo-8-(4-((5-(trifluoromethyl)pyridin-2-yl)oxy)piperidin-1-yl)-5,6-dihydro-1,5-naphthyridine-2-carbonitrile] | 3000 nM | 3000 nM | 
